Patent US20250242033A1, “Novel Stannic Protoporfin Compositions, Methods of Making, and Uses Thereof” (Renibus Therapeutics, Inc., priority 2023, published 2025)

Test system: HO-1
Assay: HO-1/GAPDH mRNA in cortex after IV FeS + SnPP (biomarker for oxidative stress)
Assay type: in vivo
Details: combined with iron sucrose
Experimental: The SnPP composition of Example 1 and the Comparative Example (1 micromole) were combined with iron sucrose (1 mg) to assess biomarkers for oxidative stress.

Structure (SMILES): C=CC1=C(C)C2=Cc3c(C=C)c(C)c4[n]3[Sn]([Cl])([Cl])[n]3c(c(C)c(CCC(=O)O)c3=CC3=NC(=C4)C(C)=C3CCC(=O)O)=CC1=N2 [Example 1, Stannic protoporfin]
- HO-1 induction relative to the comparative example, in words: lower HO-1 induction
